Experimental data from patent US6972296B2, “Carboxylic acid derivatives that inhibit the binding of integrins to their receptors” (Encysive Pharmaceuticals Inc., priority 1999, dated 2005).
One block for each compound: values may come before it.

Biological target: T1, α4β1 integrin (Homo sapiens, UniProt P05556+P13612)
T1 construct: endogenous in cells; host or cells: Ramos cells
Experiment: Adhesion of calcein-labeled Ramos cells to CS1 (fibronectin) peptide conjugated ovalbumin
Type: cell-based
Conditions: Ramos cell adhesion to CS1 conjugated ovalbumin
Summary of the method: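 Plates bearing CS1 fibronectin peptide coupled to ovalbumin (0.5 μg/ml coat, 3% BSA block) received calcein-labelled Ramos cells plus compound (100 μM stated) for 30 min at 37 °C. Buffer was TBS pH 7.5 with 1 mM Mg2+, Ca2+, Mn2+; bound cells quantified by fluorescence after lysis; […].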

[1] = Table 7, dose required to give 50% inhibition
[2] = Table 5, dose required to give 50% inhibition

T1 sequence (P13612 34-1032): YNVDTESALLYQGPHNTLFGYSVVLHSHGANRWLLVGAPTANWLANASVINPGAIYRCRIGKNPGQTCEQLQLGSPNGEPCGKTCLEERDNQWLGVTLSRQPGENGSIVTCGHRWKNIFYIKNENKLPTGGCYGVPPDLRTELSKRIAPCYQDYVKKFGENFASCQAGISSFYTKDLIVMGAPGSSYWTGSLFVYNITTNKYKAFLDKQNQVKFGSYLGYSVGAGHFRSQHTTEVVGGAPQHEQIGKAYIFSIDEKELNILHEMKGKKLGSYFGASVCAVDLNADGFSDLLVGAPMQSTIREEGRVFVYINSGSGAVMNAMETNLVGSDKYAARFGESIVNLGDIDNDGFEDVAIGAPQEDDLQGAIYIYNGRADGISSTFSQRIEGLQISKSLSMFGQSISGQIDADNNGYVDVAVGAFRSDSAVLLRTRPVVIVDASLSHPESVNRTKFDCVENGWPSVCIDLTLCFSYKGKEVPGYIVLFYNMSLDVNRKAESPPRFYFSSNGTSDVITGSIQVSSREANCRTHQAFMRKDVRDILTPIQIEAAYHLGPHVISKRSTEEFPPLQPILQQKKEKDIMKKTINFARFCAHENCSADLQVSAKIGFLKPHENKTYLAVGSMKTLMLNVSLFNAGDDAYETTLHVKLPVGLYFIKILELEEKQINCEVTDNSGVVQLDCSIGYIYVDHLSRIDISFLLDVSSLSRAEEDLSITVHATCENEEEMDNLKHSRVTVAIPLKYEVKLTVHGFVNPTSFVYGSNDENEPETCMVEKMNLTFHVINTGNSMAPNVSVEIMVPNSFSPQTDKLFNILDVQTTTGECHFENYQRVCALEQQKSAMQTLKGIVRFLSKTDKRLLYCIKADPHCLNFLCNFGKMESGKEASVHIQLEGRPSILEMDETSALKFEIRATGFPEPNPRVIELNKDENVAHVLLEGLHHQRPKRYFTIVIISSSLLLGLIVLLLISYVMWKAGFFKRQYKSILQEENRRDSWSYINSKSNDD
T1 sequence (P05556 21-798): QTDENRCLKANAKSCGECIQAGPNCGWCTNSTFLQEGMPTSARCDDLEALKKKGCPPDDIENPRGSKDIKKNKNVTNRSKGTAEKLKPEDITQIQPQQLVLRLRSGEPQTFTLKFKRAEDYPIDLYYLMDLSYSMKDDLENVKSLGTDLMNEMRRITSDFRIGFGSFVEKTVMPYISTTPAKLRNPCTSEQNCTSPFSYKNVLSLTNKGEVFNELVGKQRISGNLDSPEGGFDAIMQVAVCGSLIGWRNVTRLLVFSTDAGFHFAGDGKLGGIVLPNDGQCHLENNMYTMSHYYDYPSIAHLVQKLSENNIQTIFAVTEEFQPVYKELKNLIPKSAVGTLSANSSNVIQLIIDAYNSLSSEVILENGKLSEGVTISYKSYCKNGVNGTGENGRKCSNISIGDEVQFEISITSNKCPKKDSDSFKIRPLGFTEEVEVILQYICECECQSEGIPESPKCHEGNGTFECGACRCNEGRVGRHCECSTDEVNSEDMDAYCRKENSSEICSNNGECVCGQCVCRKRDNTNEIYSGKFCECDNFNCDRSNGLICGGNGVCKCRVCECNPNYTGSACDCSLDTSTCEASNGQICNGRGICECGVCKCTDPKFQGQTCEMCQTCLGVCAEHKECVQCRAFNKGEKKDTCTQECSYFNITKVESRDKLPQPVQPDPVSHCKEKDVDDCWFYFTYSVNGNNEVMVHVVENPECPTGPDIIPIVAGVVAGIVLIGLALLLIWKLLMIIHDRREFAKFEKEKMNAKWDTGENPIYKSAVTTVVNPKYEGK

Structure (SMILES): Cc1ccc([C@H](CC(=O)O)NC(=O)Nc2c(Cl)ccn(Cc3ccccc3Cl)c2=O)cc1
IC50 (Table 3, 30 minutes at 37° C.): 20 nM

Structure (SMILES): Cc1ccc([C@H](CC(=O)O)NC(=O)Nc2c(O)ccn(Cc3cccc(C)c3)c2=O)cc1
IC50 [2]: 55 nM

Structure (SMILES): CCOc1cccc(Cl)c1Cn1c(C)c(CC)c(O)c(NC(=O)N[C@@H](CC(=O)O)c2ccccc2)c1=O
IC50 [1]: 4 nM

Structure (SMILES): CSc1ccccc1Cn1ccc(O)c(NC(=O)N[C@@H](CC(=O)O)c2ccc(C)cc2)c1=O
IC50 [2]: 20 nM

Structure (SMILES): Cc1ccc([C@H](CC(=O)O)NC(=O)Nc2c(O)c(C)nn(Cc3ccccc3Cl)c2=O)cc1
IC50 (Table 6, 30 minutes at 37° C.): 18 nM

Structure (SMILES): Cc1cccc([C@H](CC(=O)O)NC(=O)Nc2cccn(Cc3ccccc3Cl)c2=O)c1
IC50 (Table 4, 30 minutes at 37° C.): 200 nM

Structure (SMILES): Cc1ccc([C@H](CC(=O)O)NC(=O)Nc2c(O)c(C(C)C)cn(Cc3ccccc3Cl)c2=O)cc1
IC50 (Table 6, 30 minutes at 37° C.): 60 nM

Structure (SMILES): Cc1ccc([C@H](CC(=O)O)NC(=O)Nc2c(O)ccn(Cc3ccccn3)c2=O)cc1 [(3S)-3-[({[4-hydroxy-2-oxo-1-(pyridin-2-ylmethyl)-1,2-dihydropyridin-3-yl]amino}carbonyl)amino]-3-(4-methylphenyl)propanoic acid]
IC50 [2]: 45 nM

Structure (SMILES): Cc1ccc([C@H](CC(=O)O)NC(=O)Nc2cccn(Cc3ccccc3C(F)(F)F)c2=O)cc1
IC50 (Table 4, 30 minutes at 37° C.): 1000 nM

Structure (SMILES): O=C(O)C[C@@H](Cc1cccc(C(F)(F)F)c1)NC(=O)Nc1c(O)ccn(Cc2ccccc2Cl)c1=O
IC50 [2]: 350 nM

Structure (SMILES): Cc1ccc([C@H](CC(=O)O)NC(=O)Nc2c(O)ccn(Cc3ccccc3)c2=O)cc1
IC50 (Table 4, 30 minutes at 37° C.): 30 nM

Structure (SMILES): COc1ccc2cc([C@H](CC(=O)O)NC(=O)Nc3c(O)c4c(n(Cc5ccccc5Cl)c3=O)CCC4)ccc2c1
IC50 [1]: 3 nM

Structure (SMILES): CCOc1cccc([C@H](CC(=O)O)NC(=O)Nc2c(O)c(C)nn(Cc3c(Cl)cccc3OCC)c2=O)c1 [(3S)-3-[({[2-(2-chloro-6-ethoxybenzyl)-5-hydroxy-6-methyl-3-oxo-2,3-dihydropyridazin-4-yl]amino}carbonyl)amino]-3-(3-ethoxyphenyl)propanoic acid]
IC50 [1]: 3 nM

Structure (SMILES): Cc1ccc([C@H](CC(=O)O)NC(=O)Nc2cccn(Cc3cccc(O)c3)c2=O)cc1
IC50 (Table 4, 30 minutes at 37° C.): 200 nM

Structure (SMILES): Cc1ccc([C@H](CC(=O)O)NC(=O)Nc2cccn(Cc3ccc(F)cc3Cl)c2=O)cc1
IC50 (Table 4, 30 minutes at 37° C.): 350 nM

Structure (SMILES): O=C(O)C[C@H](NC(=O)Nc1c(O)ccn(Cc2ccccc2Cl)c1=O)c1cccc(OC(F)(F)F)c1
IC50 [2]: 20 nM

Structure (SMILES): CCCS(=O)(=O)Nc1ccn(Cc2ccccc2Cl)c(=O)c1NC(=O)N[C@@H](CC(=O)O)c1ccc(C)cc1
IC50 (Table 4, 30 minutes at 37° C.): 30 nM

Structure (SMILES): O=C(O)C[C@H](NC(=O)Nc1c(O)c2c(n(Cc3ccccc3Cl)c1=O)CCC2)c1cccc(OC(F)(F)F)c1
IC50 [1]: 10 nM

Structure (SMILES): O=C(O)C[C@H](NC(=O)N[C@H]1CCN(Cc2cccs2)C1=O)c1ccc2c(c1)OCO2 [(3S)-3-(1,3-benzodioxol-5-yl)-3-[({[(3S)-2-oxo-1-(2-thienylmethyl)tetrahydro-1H-pyrrol-3-yl]amino}carbonyl)amino]propanoic acid]
IC50 (Table 2, 30 minutes at 37° C.): 15000 nM

Structure (SMILES): Cc1ccc([C@H](CC(=O)O)NC(=O)Nc2c(Nc3ccccn3)ccn(Cc3ccccc3Cl)c2=O)cc1
IC50 (Table 3, 30 minutes at 37° C.): 15 nM

Structure (SMILES): O=C(O)C[C@H](NC(=O)Nc1c(O)c2c(n(Cc3ccccc3Cl)c1=O)CCC2)c1ccc(C2CC2)cc1
IC50 [1]: 25 nM

Structure (SMILES): Cc1ccc([C@H](CC(=O)O)NC(=O)Nc2c(N3CCN(C)CC3)ccn(Cc3ccccc3Cl)c2=O)cc1
IC50 (Table 3, 30 minutes at 37° C.): 3 nM

Structure (SMILES): CCOc1ccc(Cl)c(Cl)c1Cn1c2c(c(O)c(NC(=O)N[C@@H](CC(=O)O)c3ccc(C)cc3)c1=O)CCC2
IC50 [1]: 5 nM

Structure (SMILES): COc1ccc2cc(C(CC(=O)O)NC(=O)Nc3c(O)ccn(Cc4ccccc4Cl)c3=O)ccc2c1 (stereo not drawn)
IC50 (Table 6, 30 minutes at 37° C.): 15 nM

Structure (SMILES): O=C(O)CC(NC(=O)Nc1cccn(Cc2ccccc2Cl)c1=O)c1ccc(Cl)cc1 (stereo not drawn)
IC50 (Table 4, 30 minutes at 37° C.): 400 nM

Structure (SMILES): Cn1ccc2ccc([C@H](CC(=O)O)NC(=O)Nc3c(O)c4c(n(Cc5ccccc5Cl)c3=O)CCC4)cc21
IC50 [1]: 3 nM

Structure (SMILES): CC(=O)Nc1ccc(Br)c(Cn2cccc(NC(=O)N[C@@H](CC(=O)O)c3ccc(C)cc3)c2=O)c1
IC50 (Table 4, 30 minutes at 37° C.): 200 nM

Structure (SMILES): Cc1ccc([C@H](CC(=O)O)NC(=O)Nc2cccn(Cc3ccccc3F)c2=O)cc1
IC50 (Table 4, 30 minutes at 37° C.): 100 nM

Structure (SMILES): COc1ccc(Cn2cccc(NC(=O)N[C@@H](CC(=O)O)c3ccc4c(c3)OCO4)c2=O)cc1
IC50 (Table 4, 30 minutes at 37° C.): 3000 nM

Structure (SMILES): Cc1ccc([C@H](CC(=O)O)NC(=O)Nc2cccn(Cc3cc(Cl)ccc3Cl)c2=O)cc1
IC50 (Table 4, 30 minutes at 37° C.): 150 nM

Structure (SMILES): COc1ccc(Cl)c(Cn2ccc(O)c(NC(=O)N[C@@H](CC(=O)O)c3ccc(C)cc3)c2=O)c1
IC50 [2]: 12 nM

Structure (SMILES): N#Cc1cccc(CN2CCCCC(NC(=O)N[C@@H](CC(=O)O)c3ccc4c(c3)OCO4)C2=O)c1 (stereo partly drawn)
IC50 (Table 4, 30 minutes at 37° C.): 40 nM

Structure (SMILES): CCOc1cccc(Cl)c1Cn1c2c(c(O)c(NC(=O)N[C@@H](CC(=O)O)c3cccc(CC(C)C)c3)c1=O)CCC2
IC50 [1]: 4 nM

Structure (SMILES): Cc1ccc([C@H](CC(=O)O)NC(=O)Nc2c(O)cc(C)n(Cc3ccccc3Cl)c2=O)cc1 [(3S)-3-{[({1-[(2-chlorophenyl)methyl]-4-hydroxy-6-methyl-2-oxo-1,2-dihydro-3-pyridinyl}amino)carbonyl]amino}-3-(4-methylphenyl)propanoic acid]
IC50 (Table 3, 30 minutes at 37° C.): 15 nM

Structure (SMILES): Cc1ccc([C@H](CC(=O)O)NC(=O)Nc2c(NCc3ccccn3)ccn(Cc3ccccc3Cl)c2=O)cc1
IC50 (Table 3, 30 minutes at 37° C.): 15 nM

Structure (SMILES): CCOc1cccc([C@H](CC(=O)O)NC(=O)Nc2c(O)ccn(Cc3c(Cl)cccc3OCC)c2=O)c1 [(3S)-3-[({[1-(2-chloro-6-ethoxybenzyl)-4-hydroxy-2-oxo-1,2-dihydropyridin-3-yl]amino}carbonyl)amino]-3-(3-ethoxyphenyl)propanoic acid]
IC50 (Table 6, 30 minutes at 37° C.): 3 nM

Other lines, results leading:

IC50 [1]: 3 nM
Structure (SMILES): CCOc1cccc(Cl)c1Cn1cc(C2CC2)c(O)c(NC(=O)N[C@@H](CC(=O)O)c2cccc(OC(C)C)c2)c1=O [(3S)-3-[({[1-(2-chloro-6-ethoxybenzyl)-5-cyclopropyl-4-hydroxy-2-oxo-1,2-dihydropyridin-3-yl]amino}carbonyl)amino]-3-(3-isopropoxyphenyl)propanoic acid]

IC50 [1]: 1.3 nM
Structure (SMILES): Cc1cccc(Cl)c1Cn1c2c(c(O)c(NC(=O)N[C@@H](CC(=O)O)c3cccc(N(C)S(C)(=O)=O)c3)c1=O)CCC2 [(3S)-3-{[({1-[(2-chloro-6-methylphenyl)methyl]-4-hydroxy-2-oxo-2,5,6,7-tetrahydro-1H-cyclopenta[b]pyridin-3-yl}amino)carbonyl]amino}-3-{3-[methyl(methylsulfonyl)amino]phenyl}propanoic acid]

IC50 [1]: 4 nM
Structure (SMILES): Cc1cn(Cc2ccccc2Cl)c(=O)c(NC(=O)N[C@@H](CC(=O)O)c2ccc3ccn(C)c3c2)c1O

IC50 [1]: 4 nM
Structure (SMILES): CCCCOc1cccc([C@H](CC(=O)O)NC(=O)Nc2c(O)c(C)cn(Cc3c(Cl)cccc3OCC)c2=O)c1

IC50 [1]: 5 nM
Structure (SMILES): CCCOc1cccc(Cl)c1Cn1cc(C)c(O)c(NC(=O)N[C@@H](CC(=O)O)c2cccc(OCC)c2)c1=O

IC50 [1]: 3 nM
Structure (SMILES): CCOc1cccc(Cl)c1Cn1c(C)c(C)c(O)c(NC(=O)N[C@@H](CC(=O)O)c2cccc(OC(C)C)c2)c1=O [(3S)-3-[({[1-(2-chloro-6-ethoxybenzyl)-4-hydroxy-5,6-dimethyl-2-oxo-1,2-dihydropyridin-3-yl]amino}carbonyl)amino]-3-(3-isopropoxyphenyl)propanoic acid]

IC50 (Table 6, 30 minutes at 37° C.): 7 nM
Structure (SMILES): CCCc1cn(Cc2c(Cl)cccc2OC)c(=O)c(NC(=O)N[C@@H](CC(=O)O)c2cccc(OCC)c2)c1O

IC50 (Table 6, 30 minutes at 37° C.): 17 nM
Structure (SMILES): CCCc1cn(Cc2c(Cl)cccc2OC)c(=O)c(NC(=O)N[C@@H](CC(=O)O)c2ccc(C)c(C)c2)c1O

IC50 (Table 6, 30 minutes at 37° C.): 18 nM
Structure (SMILES): Cc1ccc([C@H](CC(=O)O)NC(=O)Nc2c(O)c3c(n(Cc4ccccc4Cl)c2=O)CCC3)cc1C

IC50 [1]: 9 nM
Structure (SMILES): Cc1cn(Cc2ccccc2Cl)c(=O)c(NC(=O)N[C@@H](CC(=O)O)c2cccc(O)c2)c1O

IC50 [1]: 23 nM
Structure (SMILES): CCCc1cn(Cc2c(Cl)cccc2OCC)c(=O)c(NC(=O)N[C@@H](CC(=O)O)c2ccccc2)c1O

IC50 (Table 6, 30 minutes at 37° C.): 3 nM
Structure (SMILES): CCOc1ccc([C@H](CC(=O)O)NC(=O)Nc2c(O)c(C)cn(Cc3c(C)cccc3Cl)c2=O)cc1OCC

IC50 [1]: 10 nM
Structure (SMILES): CCCOc1cccc(Cl)c1Cn1cc(C)c(O)c(NC(=O)N[C@@H](CC(=O)O)c2ccc(C)cc2)c1=O

IC50 [1]: 18 nM
Structure (SMILES): Cc1cn(Cc2ccccc2Cl)c(=O)c(NC(=O)N[C@@H](CC(=O)O)c2ccc3c(c2)CCC3)c1O

IC50 [1]: 14 nM
Structure (SMILES): CCOc1cccc([C@H](CC(=O)O)NC(=O)Nc2c(O)c(C)cn(Cc3c(Cl)cccc3OCC(C)C)c2=O)c1

IC50 [1]: 3 nM
Structure (SMILES): CCOc1cccc(Cl)c1Cn1cc(C2CC2)c(O)c(NC(=O)N[C@@H](CC(=O)O)c2ccc(C)cc2)c1=O [(3S)-3-[({[1-(2-chloro-6-ethoxybenzyl)-5-cyclopropyl-4-hydroxy-2-oxo-1,2-dihydropyridin-3-yl]amino}carbonyl)amino]-3-(4-methylphenyl)propanoic acid]

IC50 [1]: 3 nM
Structure (SMILES): Cc1cccc(Cl)c1Cn1c2c(c(O)c(NC(=O)N[C@@H](CC(=O)O)c3ccc4c(ccn4C)c3)c1=O)CCC2 [(3S)-3-{[({1-[(2-chloro-6-methylphenyl)methyl]-4-hydroxy-2-oxo-2,5,6,7-tetrahydro-1H-cyclopenta[b]pyridin-3-yl}amino)carbonyl]amino}-3-(1-methyl-1H-indol-5-yl)propanoic acid]

IC50 [1]: 4 nM
Structure (SMILES): Cc1cn(Cc2c(C)cccc2Cl)c(=O)c(NC(=O)N[C@@H](CC(=O)O)c2ccc3c(ccn3C)c2)c1O

IC50 (Table 6, 30 minutes at 37° C.): 3 nM
Structure (SMILES): COc1cccc([C@H](CC(=O)O)NC(=O)Nc2c(O)c(C)cn(Cc3ccccc3Cl)c2=O)c1

IC50 (Table 6, 30 minutes at 37° C.): 25 nM
Structure (SMILES): COc1cc([C@H](CC(=O)O)NC(=O)Nc2c(O)c(C)cn(Cc3c(C)cccc3Cl)c2=O)ccc1C

IC50 [1]: 2 nM
Structure (SMILES): CCOc1cccc(Cl)c1Cn1cc(C)c(O)c(NC(=O)N[C@@H](CC(=O)O)c2ccc3c(c2)CCO3)c1=O [(3S)-3-[({[1-(2-chloro-6-ethoxybenzyl)-4-hydroxy-5-methyl-2-oxo-1,2-dihydropyridin-3-yl]amino}carbonyl)amino]-3-(2,3-dihydro-1-benzofuran-5-yl)propanoic acid]
